Measured values published in patent publication US20190046490A1, “METHODS OF TREATING LACTOSE INTOLERANCE” (Nogra Pharma Limited, priority 2016, published 2019).

Experiments:
lactase = assay: Lactase expression and activity in short term cultures of human duodenal biopsies; format: cell-based; conditions: exposure for 6 hours
Caco-2 cells = assay: Glucose uptake assay (2-DG6P) in Caco-2 cells; format: cell-based, human; conditions: 1 mM, 24 h
Method: Glucose uptake was evaluated by using the glucose uptake colorimetric assay kit (Sigma-Aldrich) according to the manufacturer's instructions. Briefly, Caco-2 cells were seeded into a 96-well plate at a density of 30,000 cells per well. Cells were serum deprived for 16 hours prior to stimulation in order to synchronize the cells. Cells were treated with GED (1 mM) or pioglitazone (1 μM) for 24 h. Cells were then washed 3 times with PBS and were glucose-starved by incubating with 100 μl of KRPH buffer (Krebs-Ringer-Phosphate-HEPES (KRPH) Buffer—20 mM HEPES, 5 mM KH2PO4, 1 mM MgSO4, 1 mM CaCl2, 136 mM NaCl, and 4.7 mM KCl, pH 7.4) containing 2% BSA for 40 minutes. 10 μl of 2-deoxyglucose (2-DG; 10 mM) was then added and incubation was continued for 20 minutes. 2-DG is taken up by the cells and phosphorylated by hexokinase to 2-DG6P, which cannot be further metabolized and accumulates in cells. Following incubation, cells were washed 3 times with PBS and lysed with 80 μl of the extraction buffer provided. The amount of 2-DG6P (which is directly proportional to glucose uptake by the cells) was determined by a colorimetric detection assay according to the manufacturer's protocol.

SMILES: COC(Cc1ccc(N)cc1)C(=O)O (stereo not drawn) [GED, 3-(4′-aminophenyl)2-methoxypropionic acid]
- lactase expression (lactase): significant increase
- lactase activity (lactase; data not shown): significant increase
- glucose uptake of Caco-2 cells (Caco-2 cells): did not significantly alter
